{"source": "patent US10835542B2", "about": "“9-aminomethyl minocycline compounds and use thereof in treating community-acquired bacterial pneumonia (CABP)” (Paratek Pharmaceuticals, Inc., priority 2016, dated 2020)", "key": {"[1]": {"experiment": "Phase 1 multiple oral dose study: safety and tolerability"}, "Klebsiella pneumoniae": {"system": "Klebsiella pneumoniae", "experiment": "Clinical success at PTE by baseline pathogen, microITT", "type": "in vivo, human", "conditions": "N1 = 13 (Compound 1), 13 (Moxifloxacin)"}, "Haemophilus influenzae": {"system": "Haemophilus influenzae", "experiment": "Clinical success at PTE by baseline pathogen, microITT", "type": "in vivo, human", "conditions": "N1 = 32 (Compound 1), 16 (Moxifloxacin)"}, "baseline pathogen": {"system": "baseline pathogen", "type": "in vivo, human", "conditions": "PTE, microITT"}, "[2]": {"conditions": "Omadacycline Overall (n = 26), Safety Population"}, "[3]": {"conditions": "subject who received 450 mg in Period 1 then 300 mg in Period 2"}}, "note": "Read-outs that look alike come from different tables or passages of the source."}
{"smiles": "CN(C)c1cc(CNCC(C)(C)C)c(O)c2c1C[C@H]1C[C@H]3[C@H](N(C)C)C(O)=C(C(N)=O)C(=O)[C@@]3(O)C(O)=C1C2=O", "note": "[Compound 1, 9-[(2,2-dimethyl-propylamino)-methyl]-minocycline]", "values": [{"measurement": "TEAEs leading to early discontinuation of study drug: Vomiting, n (%)", "setting": "[1]; [2]", "value": "1 (3.8) n (%)"}, {"measurement": "n (%) of subjects with Any TEAE", "setting": "[1]; [2]", "value": "10 (38.5) n (%)"}, {"measurement": "n (%) of subjects with Treatment-related TEAE", "setting": "[1]; [2]", "value": "9 (34.6) n (%)"}, {"measurement": "serious TEAEs (SAEs)", "setting": "[1]; multiple oral doses 300-600 mg", "value": "no serious TEAEs"}, {"measurement": "severity of TEAEs", "setting": "[1]; multiple oral doses 300-600 mg", "value": "either mild or moderate"}, {"measurement": "highest individual ALT value", "setting": "[1]; [3]", "value": 150, "unit": "IU/L"}, {"measurement": "highest individual ALT value above the upper limit of normal", "setting": "[1]; [3]", "value": 2.7, "unit": "fold"}, {"measurement": "subjects reporting TEAEs", "setting": "[1]; subjects that received omadacycline (300, 450, 600 mg)", "value": 38.5, "unit": "%"}, {"measurement": "Clinical Success n (%)", "setting": "Klebsiella pneumoniae", "value": "10 (76.9) n (%)"}, {"measurement": "Clinical Success n (%)", "setting": "Haemophilus influenzae", "value": "26 (81.3) n (%)"}, {"measurement": "Total number of deaths", "setting": "ITT population", "value": 8}, {"measurement": "severity of gastrointestinal (GI) adverse events (vomiting, nausea, diarrhea, dyspepsia)", "setting": "Phase 3 CABP", "value": "mild"}, {"measurement": "Subjects who died", "setting": "Safety population", "value": "8 (2.1) n (%)"}, {"measurement": "Subjects with at least one Adverse Event (AE)", "setting": "Safety population", "value": "170 (44.5) n (%)"}, {"measurement": "Subjects with at least one Drug-Related Serious TEAE", "setting": "Safety population", "value": "2 (0.5) n (%)"}, {"measurement": "Subjects with at least one Drug-Related TEAE", "setting": "Safety population", "value": "39 (10.2) n (%)"}, {"measurement": "Subjects with at least one Serious TEAE", "setting": "Safety population", "value": "23 (6.0) n (%)"}, {"measurement": "Subjects with at least one Serious TEAE Leading to Death", "setting": "Safety population", "value": "8 (2.1) n (%)"}, {"measurement": "Subjects with at least one Serious TEAE Leading to Premature Discontinuation of Test Article", "setting": "Safety population", "value": "10 (2.6) n (%)"}, {"measurement": "Subjects with at least one Severe TEAE", "setting": "Safety population", "value": "25 (6.5) n (%)"}, {"measurement": "Subjects with at least one TEAE", "setting": "Safety population", "value": "157 (41.1) n (%)"}, {"measurement": "Subjects with at least one TEAE Leading to Dose Interruption", "setting": "Safety population", "value": "0 n (%)"}, {"measurement": "Subjects with at least one TEAE Leading to Premature Discontinuation of Study", "setting": "Safety population", "value": "7 (1.8) n (%)"}, {"measurement": "Subjects with at least one TEAE Leading to Premature Discontinuation of Test Article", "setting": "Safety population", "value": "21 (5.5) n (%)"}, {"measurement": "TEAE leading to study drug discontinuation: Diarrhoea", "setting": "Safety population", "value": "0 n (%)"}, {"measurement": "TEAE leading to study drug discontinuation: Dyspepsia", "setting": "Safety population", "value": "0 n (%)"}, {"measurement": "TEAE leading to study drug discontinuation: Gastrointestinal Disorders", "setting": "Safety population", "value": "2 (0.5) n (%)"}, {"measurement": "TEAE leading to study drug discontinuation: Nausea", "setting": "Safety population", "value": "1 (0.3) n (%)"}, {"measurement": "TEAE leading to study drug discontinuation: Vomiting", "setting": "Safety population", "value": "2 (0.5) n (%)"}, {"measurement": "TEAE: Alanine Aminotransferase Increased", "setting": "Safety population", "value": "14 (3.7) n (%)"}, {"measurement": "TEAE: Aspartate Aminotransferase Increased", "setting": "Safety population", "value": "8 (2.1) n (%)"}, {"measurement": "TEAE: Clostridium Difficile Colitis", "setting": "Safety population", "value": "0 n (%)"}, {"measurement": "TEAE: Clostridium Difficile Infection", "setting": "Safety population", "value": "0 n (%)"}, {"measurement": "TEAE: Constipation", "setting": "Safety population", "value": "9 (2.4) n (%)"}, {"measurement": "TEAE: Diarrhoea", "setting": "Safety population", "value": "4 (1.0) n (%)"}, {"measurement": "TEAE: Dyspepsia", "setting": "Safety population", "value": "4 (1.0) n (%)"}, {"measurement": "TEAE: Gamma-Glutamyltransferase Increased", "setting": "Safety population", "value": "10 (2.6) n (%)"}, {"measurement": "TEAE: Headache", "setting": "Safety population", "value": "8 (2.1) n (%)"}, {"measurement": "TEAE: Hypertension", "setting": "Safety population", "value": "13 (3.4) n (%)"}, {"measurement": "TEAE: Insomnia", "setting": "Safety population", "value": "10 (2.6) n (%)"}, {"measurement": "TEAE: Nausea", "setting": "Safety population", "value": "9 (2.4) n (%)"}, {"measurement": "TEAE: Pseudomembranous Colitis", "setting": "Safety population", "value": "0 n (%)"}, {"measurement": "TEAE: Vomiting", "setting": "Safety population", "value": "10 (2.6) n (%)"}, {"measurement": "Total Number of AEs", "setting": "Safety population", "value": 434}, {"measurement": "Total Number of TEAEs", "setting": "Safety population", "value": 376}, {"measurement": "Clinical Success n (%)", "setting": "baseline pathogen; baseline pathogen Acinetobacter baumanii complex, N1 = 0 (Compound 1), 1 (Moxifloxacin)", "value": "0 n (%)"}, {"measurement": "Clinical Success n (%)", "setting": "baseline pathogen; baseline pathogen Acinetobacter baumanii, N1 = 0 (Compound 1), 1 (Moxifloxacin)", "value": "0 n (%)"}, {"measurement": "Clinical Success n (%)", "setting": "baseline pathogen; baseline pathogen Acinetobacter junii, N1 = 1 (Compound 1), 0 (Moxifloxacin)", "value": "1 (100.0) n (%)"}, {"measurement": "Clinical Success n (%)", "setting": "baseline pathogen; baseline pathogen Acinetobacter lwoffii, N1 = 1 (Compound 1), 0 (Moxifloxacin)", "value": "1 (100.0) n (%)"}, {"measurement": "Clinical Success n (%)", "setting": "baseline pathogen; baseline pathogen Citrobacter braakii, N1 = 0 (Compound 1), 1 (Moxifloxacin)", "value": "0 n (%)"}, {"measurement": "Clinical Success n (%)", "setting": "baseline pathogen; baseline pathogen Citrobacter freundii, N1 = 0 (Compound 1), 1 (Moxifloxacin)", "value": "0 n (%)"}, {"measurement": "Clinical Success n (%)", "setting": "baseline pathogen; baseline pathogen Enterobacter cloacae, N1 = 2 (Compound 1), 4 (Moxifloxacin)", "value": "2 (100.0) n (%)"}, {"measurement": "Clinical Success n (%)", "setting": "baseline pathogen; baseline pathogen Haemophilus haemolyticus, N1 = 1 (Compound 1), 0 (Moxifloxacin)", "value": "1 (100.0) n (%)"}, {"measurement": "Clinical Success n (%)", "setting": "baseline pathogen; baseline pathogen Haemophilus parahaemolyticus, N1 = 2 (Compound 1), 2 (Moxifloxacin)", "value": "2 (100.0) n (%)"}, {"measurement": "Clinical Success n (%)", "setting": "baseline pathogen; baseline pathogen Klebsiella oxytoca, N1 = 1 (Compound 1), 4 (Moxifloxacin)", "value": "0 n (%)"}, {"measurement": "Clinical Success n (%)", "setting": "baseline pathogen; baseline pathogen Morganella morganii, N1 = 1 (Compound 1), 0 (Moxifloxacin)", "value": "1 (100.0) n (%)"}, {"measurement": "Clinical Success n (%)", "setting": "baseline pathogen; baseline pathogen Neisseria meningitidis, N1 = 1 (Compound 1), 1 (Moxifloxacin)", "value": "1 (100.0) n (%)"}, {"measurement": "Clinical Success n (%)", "setting": "baseline pathogen; baseline pathogen Prevotella oris, N1 = 0 (Compound 1), 1 (Moxifloxacin)", "value": "0 n (%)"}, {"measurement": "Clinical Success n (%)", "setting": "baseline pathogen; baseline pathogen Proteus mirabilis, N1 = 2 (Compound 1), 2 (Moxifloxacin)", "value": "1 (50.0) n (%)"}, {"measurement": "Clinical Success n (%)", "setting": "baseline pathogen; baseline pathogen Pseudomonas aeruginosa, N1 = 3 (Compound 1), 5 (Moxifloxacin)", "value": "2 (66.7) n (%)"}, {"measurement": "Clinical Success n (%)", "setting": "baseline pathogen; baseline pathogen Pseudomonas putida, N1 = 0 (Compound 1), 1 (Moxifloxacin)", "value": "0 n (%)"}, {"measurement": "Clinical Success n (%)", "setting": "baseline pathogen; baseline pathogen Serratia marcescens, N1 = 1 (Compound 1), 0 (Moxifloxacin)", "value": "1 (100.0) n (%)"}, {"measurement": "Clinical Success n (%)", "setting": "baseline pathogen; baseline pathogen Stenotrophomonas maltophilia, N1 = 0 (Compound 1), 2 (Moxifloxacin)", "value": "0 n (%)"}, {"measurement": "Clinical Success n (%)", "setting": "baseline pathogen; baseline pathogen Streptococcus agalactiae, N1 = 2 (Compound 1), 3 (Moxifloxacin)", "value": "2 (100.0) n (%)"}, {"measurement": "Clinical Success n (%)", "setting": "baseline pathogen; baseline pathogen Streptococcus anginosus, N1 = 0 (Compound 1), 1 (Moxifloxacin)", "value": "0 n (%)"}, {"measurement": "Clinical Success n (%)", "setting": "baseline pathogen; baseline pathogen Streptococcus constellatus, N1 = 1 (Compound 1), 1 (Moxifloxacin)", "value": "1 (100.0) n (%)"}, {"measurement": "Clinical Success n (%)", "setting": "baseline pathogen; baseline pathogen Streptococcus gordonii, N1 = 0 (Compound 1), 1 (Moxifloxacin)", "value": "0 n (%)"}, {"measurement": "Clinical Success n (%)", "setting": "baseline pathogen; baseline pathogen Streptococcus mitis group, N1 = 1 (Compound 1), 2 (Moxifloxacin)", "value": "1 (100.0) n (%)"}, {"measurement": "Clinical Success n (%)", "setting": "baseline pathogen; baseline pathogen Streptococcus mitis, N1 = 3 (Compound 1), 5 (Moxifloxacin)", "value": "3 (100.0) n (%)"}, {"measurement": "Clinical Success n (%)", "setting": "baseline pathogen; baseline pathogen Streptococcus oralis, N1 = 1 (Compound 1), 0 (Moxifloxacin)", "value": "1 (100.0) n (%)"}, {"measurement": "Clinical Success n (%)", "setting": "baseline pathogen; baseline pathogen Streptococcus parasanguinis, N1 = 0 (Compound 1), 2 (Moxifloxacin)", "value": "0 n (%)"}, {"measurement": "Clinical Success n (%)", "setting": "baseline pathogen; baseline pathogen Streptococcus salivarius, N1 = 1 (Compound 1), 3 (Moxifloxacin)", "value": "1 (100.0) n (%)"}, {"measurement": "Clinical Success n (%)", "setting": "baseline pathogen; baseline pathogen Streptococcus sanguinis, N1 = 0 (Compound 1), 2 (Moxifloxacin)", "value": "0 n (%)"}]}
